Values joined by “and” are separate entries in the source; they are usually repeats but may differ in a detail not shown here. Identical values can stand only once. Inconclusive results and toxic doses are left out. No stated cut-off is given here; in the data, active means T/C of 150% or more; inactive means T/C below 125%.
Test system: L1210 leukemia ip in BDF1 mice, survival T/C
Experiment: NCI In Vivo Anticancer Drug Screen. Data for tumor model L1210 Leukemia (intraperitoneal) in B6D2F1 (BDF1) mice
Conditions: endpoint: mean survival time, higher = longer survival
Procedure, shortened: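 Read-out is survival time, reported as the treated-group measurement over the vehicle-control measurement.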

[1] = dose: 100.0 mg/kg/injection, schedule: Q01DX009 (ip), vehicle: saline with Tween-80
[2] = dose: 100.0 mg/kg/injection, schedule: Q04DX003 (ip), vehicle: saline with Tween-80
[3] = dose: 100.0 mg/kg/injection, schedule: Q04DX003 (ip), vehicle: Klucel (hydroxypropylcellulose) (HPC)
[4] = dose: 50.0 mg/kg/injection, schedule: Q01DX001 (ip), vehicle: saline
[5] = dose: 100.0 mg/kg/injection, schedule: Q01DX001 (ip), vehicle: saline
[6] = dose: 200.0 mg/kg/injection, schedule: Q01DX001 (ip), vehicle: saline
[7] = dose: 400.0 mg/kg/injection, schedule: Q01DX001 (ip), vehicle: saline
[8] = dose: 200.0 mg/kg/injection, schedule: Q04DX003 (ip), vehicle: Klucel (hydroxypropylcellulose) (HPC)
[9] = dose: 400.0 mg/kg/injection, schedule: Q04DX003 (ip), vehicle: Klucel (hydroxypropylcellulose) (HPC)
[10] = dose: 200.0 mg/kg/injection, schedule: Q04DX003 (ip), vehicle: saline with Tween-80
[11] = dose: 400.0 mg/kg/injection, schedule: Q04DX003 (ip), vehicle: saline with Tween-80
[12] = dose: 100.0 mg/kg/injection, schedule: Q04DX002 (ip), vehicle: saline
[13] = dose: 200.0 mg/kg/injection, schedule: Q04DX002 (ip), vehicle: saline
[14] = dose: 400.0 mg/kg/injection, schedule: Q04DX002 (ip), vehicle: saline

Measured: T/C

CC(=O)Oc1cc(Cl)c(Cl)cc1Cl
inactive: dose: 100.0 mg/kg/injection, schedule: Q01DX009 (ip), vehicle: saline 100 % of control | dose: 100.0 mg/kg/injection, schedule: Q04DX002 (ip), vehicle: gum acacia 102 % of control | dose: 200.0 mg/kg/injection, schedule: Q01DX009 (ip), vehicle: saline 100 % of control | dose: 200.0 mg/kg/injection, schedule: Q04DX002 (ip), vehicle: gum acacia 110 % of control | dose: 400.0 mg/kg/injection, schedule: Q01DX009 (ip), vehicle: saline 102 % of control | dose: 400.0 mg/kg/injection, schedule: Q04DX002 (ip), vehicle: gum acacia 94 % of control

Clc1ccccc1-c1ncc2cnccn12
inactive: dose: 25.0 mg/kg/injection, schedule: Q01DX009 (ip), vehicle: saline with Tween-80 98 % of control | dose: 25.0 mg/kg/injection, schedule: Q04DX003 (ip), vehicle: saline with Tween-80 90 % of control | dose: 50.0 mg/kg/injection, schedule: Q01DX009 (ip), vehicle: saline with Tween-80 101 % of control | dose: 50.0 mg/kg/injection, schedule: Q04DX003 (ip), vehicle: saline with Tween-80 102 % of control | [1] 107 % of control | [2] 96 % of control and 92 % of control

CCOC(=O)/C(C#N)=C\c1ccc(N(CC)CC)cc1
inactive: dose: 100.0 mg/kg/injection, schedule: Q01DX001 (ip), vehicle: Klucel (hydroxypropylcellulose) (HPC) 91 % of control | dose: 200.0 mg/kg/injection, schedule: Q01DX001 (ip), vehicle: Klucel (hydroxypropylcellulose) (HPC) 86 % of control | dose: 400.0 mg/kg/injection, schedule: Q01DX001 (ip), vehicle: Klucel (hydroxypropylcellulose) (HPC) 89 % of control

CCOc1ccn(C2OC(COC(C)=O)C(OC3OC(COC(C)=O)C(OC(C)=O)C(OC(C)=O)C3OC(C)=O)C(OC(C)=O)C2OC(C)=O)c(=O)n1 (stereo unspecified)
inactive: dose: 22.5 mg/kg/injection, schedule: Q01DX001 (ip), vehicle: carboxymethylcellulose (CMC) 120 % of control | dose: 45.0 mg/kg/injection, schedule: Q01DX001 (ip), vehicle: carboxymethylcellulose (CMC) 103 % of control | dose: 90.0 mg/kg/injection, schedule: Q01DX001 (ip), vehicle: carboxymethylcellulose (CMC) 100 % of control | dose: 180.0 mg/kg/injection, schedule: Q01DX001 (ip), vehicle: carboxymethylcellulose (CMC) 100 % of control

N#CNN=Nc1cc(Cl)c(Cl)c(Cl)c1
inactive: dose: 12.0 mg/kg/injection, schedule: Q01DX009 (ip), vehicle: saline 101 % of control | dose: 25.0 mg/kg/injection, schedule: Q01DX009 (ip), vehicle: saline 109 % of control | dose: 25.0 mg/kg/injection, schedule: Q04DX003 (ip), vehicle: saline 105 % of control | dose: 50.0 mg/kg/injection, schedule: Q01DX009 (ip), vehicle: saline 97 % of control and 104 % of control | dose: 50.0 mg/kg/injection, schedule: Q04DX003 (ip), vehicle: saline 98 % of control | dose: 100.0 mg/kg/injection, schedule: Q04DX003 (ip), vehicle: saline 91 % of control

COc1ccc(CCCCCl)cc1
inactive: dose: 100.0 mg/kg/injection, schedule: Q01DX001 (ip), vehicle: acetone 95 % of control | dose: 200.0 mg/kg/injection, schedule: Q01DX001 (ip), vehicle: acetone 95 % of control | dose: 400.0 mg/kg/injection, schedule: Q01DX001 (ip), vehicle: acetone 96 % of control

NC(=O)N/N=C(/c1ccccc1)c1ccccn1
inactive: [1] 101 % of control | dose: 200.0 mg/kg/injection, schedule: Q01DX009 (ip), vehicle: saline with Tween-80 100 % of control | dose: 400.0 mg/kg/injection, schedule: Q01DX009 (ip), vehicle: saline with Tween-80 101 % of control

CCOC(=O)C1(C(=O)OCC)CCC2Nc3ccccc3CC(=O)N21 (stereo unspecified)
inactive: dose: 25.0 mg/kg/injection, schedule: Q04DX003 (ip), vehicle: Klucel (hydroxypropylcellulose) (HPC) 101 % of control | dose: 50.0 mg/kg/injection, schedule: Q04DX003 (ip), vehicle: Klucel (hydroxypropylcellulose) (HPC) 94 % of control | [3] 100 % of control

O=c1ccn(C2CCCO2)c(=O)[nH]1 (stereo unspecified)
inactive: [4] 105 % of control | [5] 109 % of control | [6] 100 % of control | [7] 103 % of control

O=C1c2cccc(S(=O)(=O)O)c2C(=O)c2cccc(S(=O)(=O)O)c21
inactive: [4] 102 % of control | [5] 109 % of control | [6] 111 % of control | [7] 109 % of control

CC(C)(C)COC(=O)C(C)(C)CC(C)(C)C
inactive: [5] 93 % of control | dose: 187.0 mg/kg/injection, schedule: Q01DX001 (ip), vehicle: carboxymethylcellulose (CMC) 92 % of control | [6] 102 % of control | dose: 267.0 mg/kg/injection, schedule: Q01DX001 (ip), vehicle: carboxymethylcellulose (CMC) 97 % of control | dose: 400.0 mg/kg/injection, schedule: Q01DX001 (ip), vehicle: carboxymethylcellulose (CMC) 96 % of control | dose: 600.0 mg/kg/injection, schedule: Q01DX001 (ip), vehicle: carboxymethylcellulose (CMC) 96 % of control

CCCCSc1n[nH]c(=O)nc1N
inactive: [5] 93 % of control | [6] 96 % of control | [7] 98 % of control

Cc1coc2c1[C@@H](O)[C@]1(C)[C@@H](C)CC[C@H](O)[C@]1(O)C2
inactive: [5] 97 % of control | [6] 95 % of control

Cc1ccc(C(C)C)c(OCCN2CC=CC2)c1
inactive: [5] 98 % of control | [6] 94 % of control

O=S1(=O)CCN(c2ccccc2CC(c2c[nH]c3ccccc23)c2c[nH]c3ccccc23)CC1
inactive: [5] 89 % of control | [6] 86 % of control

c1ccc2nc(-c3cc4ccccc4s3)ccc2c1
inactive: dose: 100.0 mg/kg/injection, schedule: Q01DX009 (ip), vehicle: saline sonified 96 % of control | [3] 97 % of control | dose: 200.0 mg/kg/injection, schedule: Q01DX009 (ip), vehicle: saline sonified 100 % of control | [8] 95 % of control | dose: 400.0 mg/kg/injection, schedule: Q01DX009 (ip), vehicle: saline sonified 103 % of control | [9] 101 % of control

CCCOC1=C(Br)C(=O)c2ccccc2C1=O
inactive: dose: 15.0 mg/kg/injection, schedule: Q01DX001 (ip), vehicle: carboxymethylcellulose (CMC) 98 % of control | dose: 30.0 mg/kg/injection, schedule: Q01DX001 (ip), vehicle: carboxymethylcellulose (CMC) 97 % of control

Cc1ccc(NC(=S)N2CCC(CCCC3CCN(C(=S)Nc4ccc(C)c(C)c4)CC3)CC2)cc1C
inactive: dose: 100.0 mg/kg/injection, schedule: Q01DX009 (ip), vehicle: Klucel (hydroxypropylcellulose) (HPC) 93 % of control | [3] 88 % of control | dose: 200.0 mg/kg/injection, schedule: Q01DX009 (ip), vehicle: Klucel (hydroxypropylcellulose) (HPC) 90 % of control | [8] 98 % of control | dose: 400.0 mg/kg/injection, schedule: Q01DX009 (ip), vehicle: Klucel (hydroxypropylcellulose) (HPC) 90 % of control | [9] 92 % of control

NC1=C(Cl)C(=O)C(N)=C(Cl)C1=O
inactive: [2] 98 % of control | [10] 98 % of control | [11] 88 % of control

CC(C)=CCC/C(C)=C/COC(N)=O
inactive: dose: 100.0 mg/kg/injection, schedule: Q04DX002 (ip), vehicle: saline with Tween-80 100 % of control and 101 % of control | dose: 200.0 mg/kg/injection, schedule: Q04DX002 (ip), vehicle: saline with Tween-80 100 % of control and 99 % of control

O=C(NC(=S)Nc1cccc2ccccc12)c1ccccc1F
inactive: [12] 102 % of control | [13] 88 % of control | [14] 102 % of control

COC(=O)c1ccc(C(=O)O)cc1
inactive: [2] 100 % of control | [10] 102 % of control | [11] 91 % of control

COc1ccccc1NC(=O)c1ccco1
inactive: dose: 12.5 mg/kg/injection, schedule: Q04DX002 (ip), vehicle: Klucel (hydroxypropylcellulose) (HPC) 102 % of control | dose: 25.0 mg/kg/injection, schedule: Q04DX002 (ip), vehicle: Klucel (hydroxypropylcellulose) (HPC) 102 % of control | dose: 50.0 mg/kg/injection, schedule: Q04DX002 (ip), vehicle: Klucel (hydroxypropylcellulose) (HPC) 97 % of control | dose: 100.0 mg/kg/injection, schedule: Q04DX002 (ip), vehicle: Klucel (hydroxypropylcellulose) (HPC) 95 % of control | dose: 200.0 mg/kg/injection, schedule: Q04DX002 (ip), vehicle: Klucel (hydroxypropylcellulose) (HPC) 106 % of control | dose: 400.0 mg/kg/injection, schedule: Q04DX002 (ip), vehicle: Klucel (hydroxypropylcellulose) (HPC) 103 % of control

CC(=O)OCCc1ccc(F)cc1
inactive: [12] 102 % of control | [13] 105 % of control | [14] 102 % of control

— PubChem BioAssay AID248 (DTP/NCI, 2004)
